This is an account of results in article PMC7558026, “Exploring and applying the substrate promiscuity of a C-glycosyltransferase in the chemo-enzymatic synthesis of bioactive C-glycosides” (Nature Communications, 2020).

Holding throughout (format): biochemical, Aloe barbadensis
For data set [1], the target named is T1, AbCGT (Aloe vera, UniProt A0A7G9P699). The data set can be described thus: Glycosyltransferase activity assay, purified AbCGT (wild type) with aglycon acceptors and UDP-Glc. The following applies: for conversion rates, O,N,S-glycosylation / conversion rates, di-C-glycosylation / conversion rates, mono-C-glycosylation: aglycon acceptor with UDP-Glc, pH 7.4, 30 °C, up to 12 h, Reaction-1 to -3.

The target of data set [2] is T1, AbCGT. The data set is described as follows: Kinetic parameters of AbCGT (wild type). The conditions noted are these: acceptor varied, saturating UDP-Glc, pH 7.4, 30 °C. The protocol:
(§1) The reactions terminated by the addition of 200 μL of ice-cold methanol. Subsequently, samples were centrifuged at 15,000 × g for 30 min to collect the supernatant, and aliquots were analyzed by HPLC as described above. All experiments were performed in triplicate. The value of Km was calculated with the method of Lineweaver–Burk plot.

A further data set concerns AbCGT V183C. The data set can be described thus: Glycosyltransferase activity of AbCGT variant V183C. The following applies: pH 7.4, 30 °C, 12 h, Reaction-1 to -3. The protocol: (§2) The reaction mixture contained 0.5 mM sugar donors (1.0 mM for di-glycosylation), 0.25 mM aglycons, 50 mM Tris-HCl (pH 7.4), and 50‒100 μg of purified AbCGT in a final volume of 100 μL. Due to the instability of some acceptors in the buffer of pH 11.0, the reactions were performed under the physiological conditions (pH 7.4, 30 °C) to compare the catalytic activities of AbGT27 with different substrates under the same conditions. The reactions were performed at 30 °C for up to 12 h and terminated by the addition of 200 μL of ice-cold methanol. Subsequently, samples were centrifuged at 15,000 × g for 30 min to collect the supernatant, and aliquots were analyzed by HPLC-UV/ESIMS. HPLC analysis was performed on a Shiseido CAPCELL PAK C18 MG III column (250 mm × 4.6 mm I.D., 5 μm, Shiseido Co., Ltd., Japan) at a flow rate of 1 mL min^‒1. The mobile phase was a gradient elution of solvents A (0.1% formic acid aqueous solution) and B (methanol). The gradient programs were used for the analysis of the reactions (Supplementary Table 6). The conversion rates of the enzyme reactions were calculated from peak areas of glycosylated products and substrates as analyzed by HPLC. To facilitate inferential statistical analysis, three parallel assays were routinely performed; the means ± SD from triplicate analyses are reported here. […]

The target in a further data set is T2, AbCGT V183D (Aloe vera, UniProt A0A7G9P699, V183D).
T2 sequence (A0A7G9P699 1-470 V183D): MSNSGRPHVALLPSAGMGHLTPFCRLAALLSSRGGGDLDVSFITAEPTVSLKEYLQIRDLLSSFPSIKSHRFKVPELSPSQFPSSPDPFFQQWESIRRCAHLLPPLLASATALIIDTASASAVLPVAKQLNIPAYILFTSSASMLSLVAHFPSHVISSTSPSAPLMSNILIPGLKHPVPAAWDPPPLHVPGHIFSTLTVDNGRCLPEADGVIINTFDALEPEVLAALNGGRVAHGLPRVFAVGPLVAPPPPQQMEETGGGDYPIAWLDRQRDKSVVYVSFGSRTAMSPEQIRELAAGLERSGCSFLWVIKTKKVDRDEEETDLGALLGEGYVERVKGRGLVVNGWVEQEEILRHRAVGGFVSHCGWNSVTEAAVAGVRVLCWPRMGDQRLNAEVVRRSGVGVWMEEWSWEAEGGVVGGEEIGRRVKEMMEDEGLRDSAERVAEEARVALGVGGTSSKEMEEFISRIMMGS
The data set is described as follows: Glycosyltransferase activity of AbCGT variant V183D. Here is the method:
(§3) The reaction mixture contained 0.5 mM sugar donors (1.0 mM for di-glycosylation), 0.25 mM aglycons, 50 mM Tris-HCl (pH 7.4), and 50‒100 μg of purified AbCGT in a final volume of 100 μL. Due to the instability of some acceptors in the buffer of pH 11.0, the reactions were performed under the physiological conditions (pH 7.4, 30 °C) to compare the catalytic activities of AbGT27 with different substrates under the same conditions. The reactions were performed at 30 °C for up to 12 h and terminated by the addition of 200 μL of ice-cold methanol. Subsequently, samples were centrifuged at 15,000 × g for 30 min to collect the supernatant, and aliquots were analyzed by HPLC-UV/ESIMS. HPLC analysis was performed on a Shiseido CAPCELL PAK C18 MG III column (250 mm × 4.6 mm I.D., 5 μm, Shiseido Co., Ltd., Japan) at a flow rate of 1 mL min^‒1. The mobile phase was a gradient elution of solvents A (0.1% formic acid aqueous solution) and B (methanol). The gradient programs were used for the analysis of the reactions (Supplementary Table 6). The conversion rates of the enzyme reactions were calculated from peak areas of glycosylated products and substrates as analyzed by HPLC. To facilitate inferential statistical analysis, three parallel assays were routinely performed; the means ± SD from triplicate analyses are reported here.
(§4) Site-saturation mutagenesis of AbCGT at residue 183 was performed by PCR using pET28a-AbCGT as a template and the corresponding degenerate primers, which are listed in Supplementary Table 5. PCR products were purified and transformed into Trans1-T1 (DE3) E. coli. The sequences of pET28a-AbCGT mutants were confirmed by sequencing, and transformed into Transetta (DE3) E. coli for heterologous expression following protein purification.

In a further data set the test system is AbCGT V183Q. The data set can be described thus: Glycosyltransferase activity of AbCGT variant V183Q. The following applies: pH 7.4, 30 °C, 12 h, Reaction-1 to -3. The protocol:
as §2

The subject of a further data set is AbCGT V183L. The data set is described as follows: Glycosyltransferase activity of AbCGT variant V183L. The following applies: pH 7.4, 30 °C, 12 h, Reaction-1 to -3. The protocol:
as §2

Data set [3] deals with T1, AbCGT. The data set can be described thus: Glycosyltransferase activity assay, purified AbCGT (wild type) with aglycon acceptors and UDP-Glc. The following applies: pH 7.4, 30 °C, 12 h, Reaction-1 to -3.
The subject of a further data set is AbCGT V183M. The data set is described as follows: Glycosyltransferase activity of AbCGT variant V183M. The conditions noted are these: pH 7.4, 30 °C, 12 h, Reaction-1 to -3. The protocol: as §2
The subject of a further data set is AbCGT V183R. The data set can be described thus: Glycosyltransferase activity of AbCGT variant V183R. The conditions noted are these: pH 7.4, 30 °C, 12 h, Reaction-1 to -3. The protocol: as §2
A further data set has as its target T3, AbCGT V183E (Aloe vera, UniProt A0A7G9P699, V183E).
T3 sequence (A0A7G9P699 1-470 V183E): T2 sequence (A0A7G9P699 1-470 V183D) with D183E
The data set is described as follows: Glycosyltransferase activity of AbCGT variant V183E. The protocol:
as §3, §4

The next data set concerns AbCGT V183N. The data set is described as follows: Glycosyltransferase activity of AbCGT variant V183N. The conditions noted are these: pH 7.4, 30 °C, 12 h, Reaction-1 to -3. Here is the method:
as §2

Substrate in data set [4]: CC(=O)c1c(O)cc(O)cc1O
The data set can be described thus: Kinetic parameters of AbCGT (wild type). The conditions noted are these: other: acceptor varied, UDP-Glc as donor, pH 7.4, 30 °C. Here is the method: as §1

Substrate in data set [5]: O=C1C[C@@](O)(c2ccc(O)cc2)Oc2cc(O)cc(O)c21
The data set is described as follows: Kinetic parameters of AbCGT (wild type). The following applies: other: acceptor varied, UDP-Glc as donor, pH 7.4, 30 °C. Here is the method: as §1

Substrate in data set [6]: O=C(CCc1ccc(O)cc1)c1c(O)cc(O)cc1O
The data set is described as follows: Kinetic parameters of AbCGT (wild type). The following applies: other: acceptor varied, UDP-Glc as donor, pH 7.4, 30 °C. Here is the method:
as §1

Where [7] appears, read: V183D, pH 7.4, 30 °C, 12 h, Reaction-1 to -3.
Setting [8] is: V183E, pH 7.4, 30 °C, 12 h, Reaction-1 to -3.

Numbering of substitutions follows the chain as printed. “And” between values parts separate entries of the source, which are not always exact repeats. Identical values can stand only once.

T1 sequence (A0A7G9P699 entry or part of it): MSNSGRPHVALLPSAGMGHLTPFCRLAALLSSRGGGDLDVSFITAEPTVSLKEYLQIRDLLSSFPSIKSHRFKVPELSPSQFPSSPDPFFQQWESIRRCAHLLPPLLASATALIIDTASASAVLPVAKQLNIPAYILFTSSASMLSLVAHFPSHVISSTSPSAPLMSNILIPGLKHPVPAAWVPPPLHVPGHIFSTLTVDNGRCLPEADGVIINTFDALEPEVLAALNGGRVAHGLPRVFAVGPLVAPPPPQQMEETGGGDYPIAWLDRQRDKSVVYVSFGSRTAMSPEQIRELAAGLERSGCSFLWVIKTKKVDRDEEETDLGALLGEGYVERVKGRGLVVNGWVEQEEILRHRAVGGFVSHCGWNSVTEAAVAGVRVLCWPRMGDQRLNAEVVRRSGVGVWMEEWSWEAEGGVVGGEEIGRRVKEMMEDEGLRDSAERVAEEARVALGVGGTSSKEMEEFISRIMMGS

In the case of `CC(=O)c1c(O)cc(O)cc1O` [Compound 11, phloracetophene], on AbCGT [1], the “conversion rates, O,N,S-glycosylation” value worked out at 0%; the “conversion rates, di-C-glycosylation” value amounted to 100%; the “conversion rates, mono-C-glycosylation” value was found to be 0%. Also, the Kcat on AbCGT [2] was found to be 144 min⁻¹.

Consider `O=C1CC(O)(c2ccc(O)cc2)Oc2cc(O)cc(O)c21` (stereo not drawn) [Compound 23, 2-hydroxynaringenin], for which the “conversion rates of 2-hydroxynaringenin, C-glycosylation” value in the data set with AbCGT V183C was 85.3% and 83.5%; on AbCGT V183D (setting [7]), 99.7% and 99.5%; in the data set on AbCGT V183Q, 88.9% and 88.2%; in the data set on AbCGT V183L it was 83% and 80% and 76.5%; on AbCGT [3], 85.9% and 83.4% and 85%; in the data set with AbCGT V183M, 80.2% and 82.7% and 79.5%. In addition, the “conversion rates of 2-hydroxynaringenin, C-glycosylation” value with AbCGT V183R is 64.9% and 75.1% and 70.5%; at AbCGT V183E (setting [8]) it was 99.8% and 99.6%; in the data set on AbCGT V183N it was 95.8% and 95.1% and 94.3%. Besides, the “conversion rates of 2-hydroxynaringenin, O-glycosylation” value in the data set with AbCGT V183C was 14.7% and 16.5%; on AbCGT V183D (setting [7]), 0.3% and 0.5%; with AbCGT V183Q, 11.1% and 11.8%; with AbCGT V183L it was 17% and 20% and 23.5%; on AbCGT [3], 14.1% and 16.6% and 15%; in the data set on AbCGT V183M it was 19.8% and 17.3% and 20.5%. Further, the “conversion rates of 2-hydroxynaringenin, O-glycosylation” value in the data set with AbCGT V183R was 3.4% and 2.7% and 2.9%; at AbCGT V183E (setting [8]), 0.2% and 0.4%; in the data set on AbCGT V183N, 4.2% and 4.9% and 5.7%. Further, the “V183D/yield of C-glycoside(%)” value on AbCGT V183D (reaction-1) amounted to 99.3%; on AbCGT V183D (reaction-2) it was 99.5%; at AbCGT V183D (reaction-3), 99.2%. Also, the “V183D/yield of O-glycoside(%)” value on AbCGT V183D (reaction-1) turned out to be 0.7%; on AbCGT V183D (reaction-2) it was 0.5%; at AbCGT V183D (reaction-3), 0.8%. For the same molecule, the “conversion rates, O,N,S-glycosylation” value at AbCGT [1] is 16.7% and 14.4% and 17.2%. For the same molecule, the “conversion rates, di-C-glycosylation” value on AbCGT [1] stood at 0%. Further, the “conversion rates, mono-C-glycosylation” value on AbCGT [1] is 83.3% and 85.6% and 82.8%. The entries for the “WT/yield of C-glycoside(%)” value on AbCGT [1] (reaction-1), at AbCGT [1] (reaction-2) and at AbCGT [1] (reaction-3) were 82%, 84.9% and 83.2%, respectively. Besides, the “WT/yield of O-glycoside(%)” value stood at 18.7% on AbCGT [1] (reaction-1), 16.2% on AbCGT [1] (reaction-2) and 17.8% on AbCGT [1] (reaction-3). Moreover, the “V183E/yield of O-glycoside(%)” value on AbCGT V183E (reaction-1) was 0% and 0.5%; on AbCGT V183E (reaction-2), 0% and 0.3%; at AbCGT V183E (reaction-3) it was 0% and 0.8%.

B1: AbCGT (Aloe vera) (protein)
chain: T2 sequence (A0A7G9P699 1-470 V183D) with D183V
Turning to B1, the Km in data set [4] was found to be 176.2 ± 11.7 µM; in data set [5] it was 414.5 ± 23.7 µM; in data set [6], 146.0 ± 10.2 µM. Further, the kcat was determined as 144 ± 9.1 min⁻¹ in data set [4] and 120 ± 8.3 min⁻¹ in data set [6].

For orientation: Km means the concentration of substrate that gives half-maximal velocity. By kcat is commonly meant the maximal rate divided by the concentration of active sites.
